This passage reports IC50 and EC50 results from US9783545B2, “Pyrazolopyridazines and methods for treating retinal-degenerative diseases and hearing loss associated with usher syndrome” (Usher III Initiative, Inc., priority 2012, dated 2017).

The first assay addresses T1, N48K Clarin-1 (Homo sapiens, UniProt P58418, N48K).
T1 construct: expressed in transfected cells
T1 sequence (P58418 1-232 N48K): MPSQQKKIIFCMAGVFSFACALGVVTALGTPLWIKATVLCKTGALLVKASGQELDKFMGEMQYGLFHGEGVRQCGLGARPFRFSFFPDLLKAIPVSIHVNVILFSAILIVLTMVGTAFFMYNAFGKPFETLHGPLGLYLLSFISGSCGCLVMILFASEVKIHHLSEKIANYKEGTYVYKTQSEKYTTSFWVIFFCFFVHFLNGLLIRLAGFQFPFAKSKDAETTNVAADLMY
Description: Restoration of expression of N48K Clarin-1, 24 hour incubation (high content imaging of HA-tagged N48K Clarin-1). Also on record: IC50: scale not given here. Type of assay: cell-based. The note with it: HEK293-Clarin-1 N48K-HA D9 cell line, 24 hr incubation with compound. Here is the method:
Assay Method Showing Activity of Compounds of the Invention that Restore Expression of N48K Clarin-1 (24 hour incubation)
Clarin-1 is the protein encoded by the gene mutated in Usher III Syndrome (Adato et al., 2002). The most prevalent mutation in Clarin-1 in North America is N48K, which is reported to cause loss of glycosylation and a trafficking defect (Tian et al., 2009). […] Thus it is believed that restoring the trafficking of N48K Clarin-1 to the cell surface provides an avenue of intervention for Usher III Sydrome.
In a typical experiment, these cells were seeded on collagen-coated 96-well plates at a cell density of 20,000 cells per well in Dulbecco's Modified Eagle Medium (DMEM) contain 10% fetal bovine serum in a humidified incubator at 37° C., 5% CO2. After an overnight incubation, compounds were added for a 24 hr incubation in DMEM medium contain 10% fetal bovine serum in a humidified incubator at 37° C., 5% CO2. As a negative control, DMSO was used at 0.25% final concentrations. Compounds were typically tested in triplicate fashion. After the 24 hr incubation with compounds, the cells were fixed by the addition of 10% buffered formalin to the wells to achieve a final concentration of 4% formalin. After a 20 min fixation at room temperature, wells were washed three times with phosphate-buffered saline (PBS) containing Triton X-100 (0.02 phosphate, 150 mM NaCl, 0.1% Triton X-100).
The HA-tagged N48K Clarin-1 was detected with an antibody against the HA tag (HA.11 Clone 16B12 Monoclonal antibody, Covance #MMS-101P) at a dilution of 1:1000 in PBS containing Triton X-100. After a 90 min incubation, wells were washed three times with PBS containing Triton X-100, and a secondary antibody (Goat anti-mouse IgG-Cy3 (1.5 mg/ml), Jackson IR Europe #115165003) was added to the wells at a dilution of 1:250 in PBS containing Triton X-100 for 45 min. Wells were subsequently washed three times with PBS containing Triton X-100, and a final staining for nuclei was performed by the addition of DAPI (4′,6-diamidino-2-phenylindole) at a dilution of 1:10,000. The imaging of the stained cells was performed on an InCell 1000 High Content Imager (GE Healthcare), reading out the Cy3 channel for N48K Clarin-1 and the DAPI channel for nuclei. The images were analyzed and quantitated using a specific algorithm. This algorithm measured the HA-Clarin-1 staining for each cell based on the additional nuclear segmentation of the DAPI signal (FIG. 1). This algorithm measured the intensity per cell, and thus it is less sensitive for variation in cell number. Per well, approximately 2,000 cells were measured to achieve an average density per cell measurement. FIG. 1 illustrates high content analysis. DAPI-stained nuclei are used to perform segmentation of the image into individual cells. The density observed in the N48K Clarin-1 channel (Cy3) is then calculated per cell averaged over a field.
As to `OCCn1nc(C2CC2)c2c(Cl)c(-c3ccccc3)nnc21` [Iff, 2-(4-chloro-3-cyclopropyl-5-phenyl-pyrazolo[3,4-c]pyridazin-1-yl)ethanol], the IC50 entry is “A, B”.

Still in this assay, the particulars now being: HEK293-Clarin-1 N48K-HA D9 cell line, 24 hr incubation with compound; read-out: IC50 (the source's name).
Turning to `CN1CCN(CCn2nc3nnc(-c4ccccc4)c(Cl)c3c2I)CC1` [Compound 20, 4-Chloro-3-iodo-2-(2-(4-methylpiperazin-1-yl)ethyl)-5-phenyl-2H-pyrazolo[3,4-c]pyridazine], the EC50 fell in the range of 5000 to 21000 nM. Still for that read-out and setting: in the case of `Cn1nc(C2CC2)c2c(Cl)c(-c3ccccc3)nnc21` [Compound 21, 4-chloro-3-cyclopropyl-1-methyl-5-phenyl-pyrazolo[3,4-c]pyridazine] it was 2000 to 5000 nM; in that of `Cc1nn(C)c2nnc(-c3ccccc3)c(Cl)c12` [Compound 22, 4-chloro-1,3-dimethyl-5-phenyl-pyrazolo[3,4-c]pyridazine], at most 2000 nM.

Take `Cc1nn(C)c2nnc(-c3ccccc3)c(Br)c12` [Compound 23, 4-bromo-1,3-dimethyl-5-phenyl-pyrazolo[3,4-c]pyridazine]: the EC50 lay in the range of 2000 to 5000 nM. On the same count and under the same terms, in the case of `Cc1nn(C)c2nnc(-c3ccccc3)c(F)c12` [Compound 24, 4-fluoro-1,3-dimethyl-5-phenyl-pyrazolo[3,4-c]pyridazine] it was at most 2000 nM. Still for that read-out and setting: to `Cc1nn(C)c2nnc(-c3cccc(F)c3)c(Cl)c12` [Compound 25, 4-chloro-5-(3-fluorophenyl)-1,3-dimethyl-pyrazolo[3,4-c]pyridazine] belongs at most 2000 nM; to `Cn1nc(-c2cccnc2)c2c(Cl)c(-c3ccccc3)nnc21` [Compound 26, 4-chloro-1-methyl-5-phenyl-3-(3-pyridyl)pyrazolo[3,4-c]pyridazine], at most 2000 nM; to `Cn1nc(C2CCCC2)c2c(Cl)c(-c3ccccc3)nnc21` [Compound 27, 4-chloro-3-cyclopentyl-1-methyl-5-phenyl-pyrazolo[3,4-c]pyridazine], 2000 to 5000 nM. Same read-out and setting: in the case of `Cn1nc(-c2ccccc2)c2c(Cl)c(-c3ccsc3)nnc21` [IIIc, 4-chloro-1-methyl-3-phenyl-5-(3-thienyl)pyrazolo[3,4-c]pyridazine] it was at most 2000 nM. On to `Cn1nc(-c2ccccc2)c2c(Cl)c(-c3cccnc3)nnc21` [IIId, 4-chloro-1-methyl-3-phenyl-5-(3-pyridyl)pyrazolo[3,4-c]pyridazine], for which the EC50 is at most 2000 nM. Still for that read-out and setting: to `FC(F)(F)CCn1nc(-c2ccccc2)c2c(Cl)c(-c3ccccc3)nnc21` [IId, 4-chloro-3,5-diphenyl-1-(3,3,3-trifluoropropyl)pyrazolo[3,4-c]pyridazine] belongs at most 2000 nM. Same read-out and setting: in the case of `Clc1c(-c2ccccc2)nnc2c1c(-c1ccccc1)nn2C1CCOCC1` [IIe, 4-chloro-3,5-diphenyl-1-tetrahydropyran-4-yl-pyrazolo[3,4-c]pyridazine] it was at most 2000 nM.

In the case of `FC(F)(F)Cn1nc(-c2ccccc2)c2c(Cl)c(-c3ccccc3)nnc21` [IIk, 4-chloro-3,5-diphenyl-1(2,2,2-trifluoroethyl)pyrazolo[3,4-c]pyridazine], the EC50 is at most 2000 nM. Take `CC(=O)CCn1nc(-c2ccccc2)c2c(Cl)c(-c3ccccc3)nnc21` [IIm, 4-(4-chloro-3,5-diphenyl-pyrazolo[3,4-c]pyridazin-1-yl)butan-2-one]: the EC50 was at most 2000 nM. Still for that read-out and setting: to `Clc1c(-c2ccccc2)nnc2c1c(-c1ccccc1)nn2Cc1ccncc1` [IIo, 4-chloro-3,5-diphenyl-1-(4-pyridylmethyl)pyrazolo[3,4-c]pyridazine] belongs at most 2000 nM; to `Clc1c(-c2ccccc2)nnc2c1c(-c1ccccc1)nn2Cc1ccccn1` [IIp, 4-chloro-3,5-diphenyl-1-(2-pyridylmethyl)pyrazolo[3,4-c]pyridazine], at most 2000 nM; to `O=C1CCCN1CCn1nc(-c2cccc(F)c2)c2c(Cl)c(-c3ccccc3)nnc21` [IIr, 1-[2-[4-chloro-3-(3-fluorophenyl)-5-phenyl-pyrazolo[3,4-c]pyridazin-1-yl]ethyl]pyrrolidin-2-one], at most 2000 nM. Consider `CN1CCN(CCn2nc(I)c3c(Cl)c(-c4ccccc4)nnc32)CC1` [Ia, 4-Chloro-3-iodo-1-(2-(4-methylpiperazin-1-yl)ethyl)-5-phenyl-1H-pyrazolo[3,4-c]pyridazine], for which the EC50 was at most 2000 nM.

For the compound `O=C(Cn1nc(C(F)(F)F)c2c(Cl)c(-c3ccccc3)nnc21)N1CCCC1` [Iaa, 2-[4-chloro-5-phenyl-3-(trifluoromethyl)pyrazolo[3,4-c]pyridazin-1-yl]-1-pyrrolidin-1-yl-ethanone], the EC50 is 2000 to 5000 nM.

Regarding `CN1CCN(CCn2ncc3c(Cl)c(-c4ccccc4)nnc32)CC1` [Ib, 4-Chloro-1-(2-(4-methylpiperazin-1-yl)ethyl)-5-phenyl-1H-pyrazolo[3,4-c]pyridazine], the EC50 lay within 5000 to 21000 nM. As for `Clc1c(-c2ccccc2)nnc2[nH]nc(Br)c12` [Ibb, 3-bromo-4-chloro-5-phenyl-1H-pyrazolo[3,4-c]pyridazine], the EC50 is 2000 to 5000 nM. Still for that read-out and setting: in the case of `CN1CCN(CCn2nc(-c3cccc(C(=O)N4CCCC4)c3)c3c(Cl)c(-c4ccccc4)nnc32)CC1` [Id, (3-(4-chloro-1-(2-(4-methylpiperazin-1-yl)ethyl)-5-phenyl-1H-pyrazolo[3,4-c]pyridazin-3-yl)phenyl)(pyrrolidin-1-yl)methanone] it was at most 2000 nM; in that of `Clc1c(-c2ccccc2)nnc2[nH]nc(C3CC3)c12` [Idd, 4-chloro-3-cyclopropyl-5-phenyl-1H-pyrazolo[3,4-c]pyridazine], at most 2000 nM; in that of `CN1CCN(CCn2nc(-c3ccnc(C(F)(F)F)c3)c3c(Cl)c(-c4ccccc4)nnc32)CC1` [Ie, 4-chloro-1-(2-(4-methylpiperazin-1-yl)ethyl)-5-phenyl-3-(2-(trifluoromethyl)pyridin-4-yl)-1H-pyrazolo[3,4-c]pyridazine], at most 2000 nM. Still for that read-out and setting: to `O=C(Cn1nc(C2CC2)c2c(Cl)c(-c3ccccc3)nnc21)N1CCCC1` [Iee, 2-(4-chloro-3-cyclopropyl-5-phenyl-pyrazolo[3,4-c]pyridazin-1-yl)-1-pyrrolidin-1-yl-ethanone] belongs 2000 to 5000 nM; to `CN1CCN(CCn2nc(C3=CCOCC3)c3c(Cl)c(-c4ccccc4)nnc32)CC1` [If, 4-chloro-3-(3,6-dihydro-2H-pyran-4-yl)-1-(2-(4-methylpiperazin-1-yl)ethyl)-5-phenyl-1H-pyrazolo[3,4-c]pyridazine], at most 2000 nM; to `CN1CCN(CCn2nc(/C=C/c3ccccc3)c3c(Cl)c(-c4ccccc4)nnc32)CC1` [Ig, (E)-4-chloro-1-(2-(4-methylpiperazin-1-yl)ethyl)-5-phenyl-3-styryl-1H-pyrazolo[3,4-c]pyridazine], at most 2000 nM. Same read-out and setting: in the case of `CN(C)CCNC(=O)Cn1nc(-c2cccnc2)c2c(Cl)c(-c3ccccc3)nnc21` [Igg, 2-[4-chloro-5-phenyl-3-(3-pyridyl)pyrazolo[3,4-c]pyridazin-1-yl]-N-(2-dimethylaminoethyl)acetamide] it was 2000 to 5000 nM; in that of `CN1CCN(CCn2nc(-c3ccc(C(F)(F)F)nc3)c3c(Cl)c(-c4ccccc4)nnc32)CC1` [Ih, 4-chloro-1-(2-(4-methylpiperazin-1-yl)ethyl)-5-phenyl-3-(6-(trifluoromethyl)pyridin-3-yl)-1H-pyrazolo[3,4-c]pyridazine], 2000 to 5000 nM. As to `Cc1nn(CCO)c2nnc(-c3ccccc3)c(Cl)c12` [Ihh, 2-(4-chloro-3-methyl-5-phenyl-pyrazolo[3,4-c]pyridazin-1-yl)ethanol], the EC50 was at most 2000 nM. Still for that read-out and setting: to `CN1CCN(CCn2nc(-c3cc4ccccc4o3)c3c(Cl)c(-c4ccccc4)nnc32)CC1` [Ij, 3-(benzofuran-2-yl)-4-chloro-1-(2-(4-methylpiperazin-1-yl)ethyl)-5-phenyl-1H-pyrazolo[3,4-c]pyridazine] belongs at most 2000 nM.
